# Assay results reported in patent US6900200B2, “Tricyclic hydroxy carboxamides and derivatives thereof tocolytic oxytocin receptor antagonists” (Wyeth, priority 2001, dated 2005).
# Molecular target: T1, human vasopressin V2 receptor subtype (Homo sapiens, UniProt P30518)
# T1 construct: host or cells: CHO cells, pZeoSV vector
# Assay: Vasopressin binding in CHO cell membranes expressing human vasopressin V2 subtype receptors ([3H]arginine vasopressin radioligand binding)
# Settings: @ 100 nM
# Text: Vasopressin Binding in Chinese Hamster Ovary Cell Membranes Expressing Human Vasopressin V2 Subtype Receptors
# Chinese Hamster Ovary (CHO) cells stably transfected with the human V2 subtype receptors were obtained from M. Thibonnier, Case Western Reserve University School of Medicine, Cleveland, Ohio.
# A. Passaging and Amplification of Cells
# CHO cells transfected with the human vasopressin V2 subtype receptors obtained from M. Thibonnier (pZeoSV vector) are allowed to grow to confluency (approx. >90%) in T-150 flasks under sterile conditions, in a cell culture medium ofF-12 Nutrient Mixture (HAM) with L-glutamine (Gibco Cat. #11765-054) containing 15 mM HEPES (Gibco Cat. #15630-080), 1% antibiotic/antimycotic (add 5 mL 100×, Gibco Cat. #15240-062 per 500 mL F-12), 250 μg/mL Zeocin (add 1.25 mL of 100 mg/mL Invitrogen R-250-01 per 500 mL F-1 2) and 10% Fetal Bovine Serum (Qualified, heat inactivated, Gibco Cat. #16140-063). The medium is removed by aspiration and the cells washed with 10 mL of Hank's Balanced Salt solution (Gibco Cat. #14175-095). The salt solution is removed by aspiration and the cells trypsinized with 5 mL of trypsin-EDTA (0.05% trypsin, 0.53 mM EDTA-4Na, Gibco Cat. #25300-070) for 1 min. The trypsin is removed by aspiration and the cells dislodged by tapping. Cell Culture medium (e.g. 30 mL for 1:30 split) is immediately added and mixed well to inactivate trypsin. 1 mL of detached cells is added to new culture flasks containing fresh Cell Culture medium (e.g. into 25 mL per T-150 flask), and mixed gently. The cells are incubated at 37° C. in 5% CO2. The medium is changed at 3 to 4 day interval (or as appropriate). The cells grow to confluency (approx. >75%-95%) within 7-8 days. All steps are done under sterile conditions.
# The cells are washed twice gently with Hank's Balanced Salt solution (e.g. use 10 mL per T-150 flask). The excess solution is removed and the cells bathed for 15-30 min. in an enzyme-free Cell Dissociation Buffer (e.g. use 8 mL Hank's Based, Gibco Cat. # 13150-016 per T-150 flask) until cells are loosened. The contents are transferred to centrifuge tubes (50 mL) kept in ice bath. All subsequent steps are done at 4° C. The tubes are centrifuged at 300×g for 15 min (1380 rpm on SORVAL, Model RT6000D, using the rotor for 50 mL tubes). The supernatant is discarded and the cells suspended in homogenizing buffer (10 mM Tris-HCl containing 0.25 M sucrose and 1 mM EDTA, pH 7.4) ensuring that the volume of the buffer is about ten times the volume of the cell pellet. The cells are pooled into a centrifuge tube (50 mL) and homogenized with Polytron at setting 6 for 10 sec. The homogenate is transferred into a Potter-Elvjehm homogenizer and homogenized with 3 strokes. The homogenate is centrifuged at 1500×g for 60 min at 4° C. (3100 rpm using SORVAL, model RT6000D, using the rotor for 50 mL tubes). The pellet is discarded. The supernatant is centrifuged at 100,000×g for 60 min. at 4° C. (Beckman L8-80M ultracentrifuge; spin at 37,500 rpm with rotor type 70 Ti for 50 mL tubes; 38,000 rpm with type 80Ti for 15 mL tubes; or 35,800 rpm with rotor type 45Ti). The supernantant is discarded and the pellet suspended in 3 to 4 mL of Tris buffer (50 mM TRIS—HCl, pH 7.4). The protein content is estimated by the Bradford or Lowry method. The volume of the membrane suspension is adjusted with the membrane buffer (50 mM Tris-HCl containing 0.1% BSA and 0.1 mM PMSF) to give 3.0 mg/mL (or as appropriate) of protein. The membranes are aliquoted and stored at −70. ° C.
# C. Radioligand Binding Assay
# In wells of a 96-well format microtiter plate, is added 90, 110 or 130 μL (to make up a final volume of 200 μL) of assay buffer containing 50 mM of Tris-HCl (pH 7.4), […], 1 mg % aprotinin, 1 mg % leupeptin, 2 mg % 1,10-phenanthroline, 10 mg % trypsin inhibitor, and 0.1 mM PMSF. The inhibitors are added on the day of the experiment. […]
# T1 sequence (P30518 whole entry): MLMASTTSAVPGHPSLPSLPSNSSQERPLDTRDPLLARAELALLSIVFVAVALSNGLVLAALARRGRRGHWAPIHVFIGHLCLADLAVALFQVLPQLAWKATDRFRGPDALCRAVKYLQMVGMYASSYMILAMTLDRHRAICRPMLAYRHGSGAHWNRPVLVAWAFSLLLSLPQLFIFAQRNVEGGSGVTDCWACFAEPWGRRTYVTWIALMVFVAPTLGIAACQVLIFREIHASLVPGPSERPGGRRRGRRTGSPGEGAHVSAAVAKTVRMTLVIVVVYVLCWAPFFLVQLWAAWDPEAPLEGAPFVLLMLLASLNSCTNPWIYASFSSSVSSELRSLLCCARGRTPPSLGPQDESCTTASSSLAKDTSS
row,inhibition at 0.1 µM,SMILES
1,74%,"COc1ccccc1-c1ccc(C(=O)N2Cc3ccc(C(=O)N(C)C[C@H](O)CO)n3Cc3ccccc32)cc1C (single isomer, unassigned) [Example 15]"
2,51%,"COc1ccccc1-c1ccc(C(=O)N2Cc3ccc(C(=O)N(C)C[C@@H](O)CO)n3Cc3ccccc32)cc1C (single isomer, unassigned) [Example 16]"
3,13%,"Cc1cc(C(=O)N2Cc3ccc(C(=O)NC(CO)(CO)CO)n3Cc3ccccc32)ccc1-c1ccccc1C(F)(F)F [Example 3, 10-[(2-Methyl-2′-trifluoromethyl-[1,1′-biphenyl]-4-yl)carbonyl]-10,11-dihydro-5H-pyrrolo[2,1-c][1,4]benzodiazepine-3-carboxylic acid (2-hydroxy-1,1-bis-hydroxymethyl-ethyl)-amide]"
4,16%,"COCCN1CCN(C(=O)c2ccc3n2Cc2ccccc2N(C(=O)c2ccc(-c4ccccc4C(F)(F)F)c(C)c2)C3)CC1 [Example 7, Methyl 2-{4-[(10-{[2-methyl-2′-trifluoromethyl-[1,1′-biphenyl]-4-yl]carbonyl}-10,11-dihydro-5H-pyrrolo[2,1-c][1,4]benzodiazepin-3-yl)carbonyl]piperazin-1-yl}ethyl ether]"

# Same assay, conditions: value printed in parentheses
row,SMILES,IC50
1,"Cc1cc(C(=O)N2Cc3ccc(C(=O)N4CCN(C[C@H](O)CO)CC4)n3Cc3ccccc32)ccc1-c1ccccc1C(F)(F)F [Example 5, (2S)-3-{4-[(10-{[2-Methyl-2′-trifluoromethyl-[1,1′-biphenyl]-4-yl]carbonyl}-10,11-dihydro-5H-pyrrolo[2,1-c][1,4]benzodiazepin-3-yl)carbonyl]piperazin-1-yl}propane-1,2-diol]",1190 nM
2,"Cc1cc(C(=O)N2Cc3ccc(C(=O)N4CCN(C[C@@H](O)CO)CC4)n3Cc3ccccc32)ccc1-c1ccccc1C(F)(F)F [Example 6, (2R)-3-{4-[(10-{[2-Methyl-2′-trifluoromethyl-[1,1′-biphenyl]-4-yl]carbonyl}-10,11-dihydro-5H-pyrrolo[2,1-c][1,4]benzodiazepin-3-yl)carbonyl]piperazin-1-yl}propane-1,2-diol]",1390 nM
3,"COC[C@@H](O)CN1CCN(C(=O)c2ccc3n2Cc2ccccc2N(C(=O)c2ccc(-c4ccccc4C(F)(F)F)c(C)c2)C3)CC1 [Example 9, [3-({4-[(2S)-2-Hydroxy-3-methoxypropyl]-1-piperazinyl}carbonyl)-5H-pyrrolo[2,1-c][1,4]benzodiazepin-10(11H)-yl][2-methyl-2′-trifluoromethyl-[1,1′-biphenyl]-4-yl]methanone]",1230 nM
4,"COCC(CN(C)C(=O)c1ccc2n1Cc1ccccc1N(C(=O)c1ccc(-c3ccccc3C(F)(F)F)c(C)c1)C2)OC (centres unmarked) [Example 10, N-(2,3-Dimethoxypropyl)-N-methyl-10-{[2-methyl-2′-trifluoromethyl-[1,1′-biphenyl]-4-yl]carbonyl}-10,11-dihydro-5H-pyrrolo[2,1-c][1,4]benzodiazepine-3-carboxamide]",2220 nM
5,"CC(=O)OCC(CN(C)C(=O)c1ccc2n1Cc1ccccc1N(C(=O)c1ccc(-c3ccccc3C(F)(F)F)c(C)c1)C2)OC(C)=O (centres unmarked) [Example 13, 2-(Acetyloxy)-1-({methyl[(10-{[2-methyl-2′-trifluoromethyl-[1,1′-biphenyl]-4-yl]carbonyl}-10,11-dihydro-5H-pyrrolo[2,1-c][1,4]benzodiazepin-3-yl)carbonyl]amino}methyl)ethyl acetate]",990 nM

# The next lines start with the values.
row,IC50,SMILES
1,769 nM,"COC[C@H](O)CN1CCN(C(=O)c2ccc3n2Cc2ccccc2N(C(=O)c2ccc(-c4ccccc4C(F)(F)F)c(C)c2)C3)CC1 [Example 8, (2R)-1-Methoxy-3-{4-[(10-{[2-methyl-2′-trifluoromethyl-[1,1′-biphenyl]-4-yl]carbonyl}-10,11-dihydro-5H-pyrrolo[2,1-c][1,4]benzodiazepin-3-yl)carbonyl]piperazin-1-yl}propan-2-ol]"
2,763 nM,"Cc1cc(C(=O)N2Cc3ccc(C(=O)N(C)C[C@@H]4OC(=O)O[C@H]4[C@H](O)[C@H]4COC(=O)O4)n3Cc3ccccc32)ccc1-c1ccccc1C(F)(F)F [Example 12, N-[((4S,5S)-5-{(R)-Hydroxy[(4R)-2-oxo-1,3-dioxolan-4-yl]methyl}-2-oxo-1,3-dioxolan-4-yl)methyl]-N-methyl-10-{[2-methyl-2′-(trifluoromethyl)[1,1′-biphenyl]-4-yl]carbonyl}-10,11-dihydro-5H-pyrrolo[2,1-c]benzodiazepine-3-carboxamide]"
3,633 nM,"Cc1cc(C(=O)N2Cc3ccc(C(=O)N(C)CC(O)CO)n3Cc3ccccc32)ccc1-c1ccccc1C(F)(F)F (centres unmarked) [Example 2, 10-[(2-Methyl-2′-trifluoromethyl-[1,1′-biphenyl]-4-yl)carbonyl]-10,11-dihydro-5H-pyrrolo[2,1-c][1,4]benzodiazepine-3-carboxylic acid (2,3-dihydroxy-propyl)-methyl-amide]"
4,617 nM,"Cc1cc(C(=O)N2Cc3ccc(C(=O)N(C)C[C@H](O)[C@@H](O)[C@H](O)[C@H](O)CO)n3Cc3ccccc32)ccc1-c1ccccc1C(F)(F)F [Example 4, 10-[(2-Methyl-2′-trifluoromethyl-[1,1′-biphenyl]-4-yl)carbonyl]-10,11-dihydro-5H-pyrrolo[2,1-c][1,4]benzodiazepine-3-carboxylic acid methyl-((2S,3R,4R,5R)-2,3,4,5,6-pentahydroxy-hexyl)-amide]"
5,610 nM,"Cc1cc(C(=O)N2Cc3ccc(C(=O)N(CCO)CCO)n3Cc3ccccc32)ccc1-c1ccccc1C(F)(F)F [Example 1, 10-[(2-Methyl-2′-trifluoromethyl-[1,1′-biphenyl]-4-yl)carbonyl]-10,11-dihydro-5H-pyrrolo[2,1-c][1,4]benzodiazepine-3-carboxylic acid bis-(2-hydroxy-ethyl)-amide]"
6,451 nM,"COc1cc(C(=O)N2Cc3ccc(C(=O)N(C)C[C@@H](O)[C@H](O)[C@H](O)[C@@H](O)CO)n3Cc3ccccc32)ccc1-c1ccccc1C(F)(F)F (stereo in doubt) [Example 23, 10-{[2-Methoxy-2′-trifluoromethyl-[1,1′-biphenyl]-4-yl]carbonyl}-N-methyl-N-[(2R,3S,4R,5S)-2,3,4,5,6-pentahydroxyhexyl]-10,11-dihydro-5H-pyrrolo[2,1-c][1,4]benzodiazepine-3-carboxamide]"
7,356 nM,"Cc1cc(C(=O)N2Cc3ccc(C(=O)N(C)CC4COC(=O)O4)n3Cc3ccccc32)ccc1-c1ccccc1C(F)(F)F (centres unmarked) [Example 11, 10-[(2-Methyl-2′-trifluoromethyl-[1,1′-biphenyl]-4-yl)carbonyl]-10,11-dihydro-5H-pyrrolo[2,1-c][1,4]benzodiazepine-3-carboxylic acid methyl-[(2-oxo-[1,3]dioxolan-4-yl)methyl]-amide]"
8,205 nM,"COc1ccccc1-c1ccc(C(=O)N2Cc3ccc(C(=O)N(C)CC(O)CO)n3Cc3ccccc32)cc1C (centres unmarked) [Example 14, 10-[(2′-Methoxy-2-methyl-[1,1′-biphenyl]-4-yl)carbonyl]-10,11-dihydro-5H-pyrrolo[2,1-c][1,4]benzodiazepine-3-carboxylic acid (2,3-dihydroxy-propyl)-methyl-amide]"
